Results from ChEMBL document CHEMBL4619823, “Allosteric Modulation of Protein Arginine Methyltransferase 5 (PRMT5)” (ACS Med Chem Lett, 2020).

The compounds below were run against Protein arginine N-methyltransferase 5 (Homo sapiens, UniProt O14744) (assay: Inhibition of PRMT5 in human MCF7 cells assessed as reduction in symmetrically dimethylated nuclear protein level incubated for 3 days by Alexafluor-488 conjugate anti-rabbit antibody/DAPI staining based IN cell analyzer method).
Chain of Protein arginine N-methyltransferase 5 (O14744 whole entry): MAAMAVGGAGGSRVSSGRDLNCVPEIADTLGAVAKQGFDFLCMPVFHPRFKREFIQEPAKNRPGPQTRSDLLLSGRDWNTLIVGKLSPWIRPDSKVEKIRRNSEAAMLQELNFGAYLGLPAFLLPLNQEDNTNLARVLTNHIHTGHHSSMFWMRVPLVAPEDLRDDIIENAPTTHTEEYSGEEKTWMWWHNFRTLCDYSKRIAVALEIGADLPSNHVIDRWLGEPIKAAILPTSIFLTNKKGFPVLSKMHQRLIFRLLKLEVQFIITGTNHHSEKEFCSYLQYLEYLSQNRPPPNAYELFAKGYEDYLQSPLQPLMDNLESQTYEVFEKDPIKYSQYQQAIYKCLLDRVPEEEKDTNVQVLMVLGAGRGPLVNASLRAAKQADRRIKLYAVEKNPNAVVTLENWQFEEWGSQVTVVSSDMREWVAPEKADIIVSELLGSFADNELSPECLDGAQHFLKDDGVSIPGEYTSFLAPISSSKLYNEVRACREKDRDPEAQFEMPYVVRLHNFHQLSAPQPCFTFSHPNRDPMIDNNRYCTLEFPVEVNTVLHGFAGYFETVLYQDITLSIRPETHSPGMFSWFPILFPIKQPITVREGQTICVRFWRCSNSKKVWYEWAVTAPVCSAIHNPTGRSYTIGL

SMILES | EC50 [µM]
COc1ccc([C@@]2(C34CC5CC(CC(C5)C3)C4)N=C(N)N(C)C2=O)cc1 | 4.6

What follows are compounds tested against PRMT5/MEP50 complex (Homo sapiens, UniProt O14744) (assay: Inhibition of recombinant Avi-tagged PRMT5 (2 to 637)/ His-tagged MEP50 (2 to 342) (unknown origin) expressed in baculovirus infected Sf21 cells using biotinylated H4R3 (Me1) peptide as substrate in presence of SAM preincubated for 60 mins followed by substrate addition after 150 mins by biochemical methylation assay).
Chain of PRMT5/MEP50 complex (O14744 whole entry): as above
Chain of PRMT5/MEP50 complex (Q9BQA1 whole entry, further chain): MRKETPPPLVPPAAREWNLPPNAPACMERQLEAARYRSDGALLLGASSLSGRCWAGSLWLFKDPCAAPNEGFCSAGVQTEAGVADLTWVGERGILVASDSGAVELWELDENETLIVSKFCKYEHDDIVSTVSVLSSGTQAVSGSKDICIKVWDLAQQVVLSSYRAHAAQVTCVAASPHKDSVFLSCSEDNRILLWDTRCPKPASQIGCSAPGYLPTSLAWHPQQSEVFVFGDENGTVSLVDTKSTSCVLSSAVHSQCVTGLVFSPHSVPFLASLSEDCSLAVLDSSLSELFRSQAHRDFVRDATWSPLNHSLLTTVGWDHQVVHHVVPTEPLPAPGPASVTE

SMILES | EC50 [µM]
CN1C(=O)[C@](c2ccccc2)(C23CC4CC(CC(C4)C2)C3)N=C1N | 0.012
CN1C(=O)[C@@](CCC2CCCCC2)(c2ccccc2)N=C1N | 0.05
COc1ccc([C@@]2(C34CC5CC(CC(C5)C3)C4)N=C(N)N(C)C2=O)cc1 | 0.016
CCC1CCN2C(=O)[C@](c3ccccc3)(C34CC5CC(CC(C5)C3)C4)N=C2N1 (stereo partly drawn) | 0.068
COc1ccc([C@]2(C34CC5CC(CC(C5)C3)C4)N=C(N)N(C)C2=O)cc1 | 3.1

The next lines start with the values.

EC50 [µM] | SMILES
0.056 | COc1cccc([C@@]2(C34CC5CC(CC(C5)C3)C4)N=C(N)N(C)C2=O)c1
0.24 | COc1ccc([C@@]2(C34CCC(CC3)CC4)N=C(N)N(C)C2=O)cc1
0.09 | CN1C(=O)[C@](c2ccc3ccccc3c2)(C23CC4CC(CC(C4)C2)C3)N=C1N
0.62 | COc1ccc(C2(C34CC5CC(O)(CC(F)(C5)C3)C4)N=C(N)N(C)C2=O)cc1 (stereo not drawn)
0.22 | COc1ccc([C@@]2(C34CC5CC(CC(O)(C5)C3)C4)N=C(N)N(C)C2=O)cc1
0.066 | CC1CCN2C(=O)[C@](c3ccccc3)(C34CC5CC(CC(C5)C3)C4)N=C2N1 (stereo partly drawn)

These compounds were tested against PRMT5/MEP50 complex (Homo sapiens) (UniProt O14744+Q9BQA1) (assay: Binding affinity to human biotinylated PRMT5/MEP50 assessed as association rate constant by SPR analysis).
Format: protein-complex assay

SMILES | Ka [M⁻¹ s⁻¹]
COc1ccc([C@@]2(C34CC5CC(CC(C5)C3)C4)N=C(N)N(C)C2=O)cc1 | 1000
